The source made the active and inactive calls. The calls are words filed in the database; no cut-off is given here.
What was measured:
[1] = target: T1, S-adenosylmethionine decarboxylase proenzyme (Rattus norvegicus, UniProt P17708); assay: Inhibitory concentration of compound against S-Adenosyl-methionine decarboxylase (SAMDC) from rat liver
T1 sequence (P17708 whole entry): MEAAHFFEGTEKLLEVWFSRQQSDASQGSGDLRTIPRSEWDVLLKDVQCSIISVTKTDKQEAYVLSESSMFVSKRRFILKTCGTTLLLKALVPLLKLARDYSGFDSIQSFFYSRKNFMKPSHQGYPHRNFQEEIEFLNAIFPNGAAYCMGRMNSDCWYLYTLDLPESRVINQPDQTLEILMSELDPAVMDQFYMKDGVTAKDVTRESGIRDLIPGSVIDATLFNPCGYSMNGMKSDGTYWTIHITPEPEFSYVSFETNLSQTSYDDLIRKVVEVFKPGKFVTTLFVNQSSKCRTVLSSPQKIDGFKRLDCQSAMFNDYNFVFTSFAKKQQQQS

[2] = target: T2, Ornithine decarboxylase (Rattus norvegicus) (UniProt P09057); assay: Evaluated for inhibition of rat liver ornithine decarboxylase (ODC) at concentrations of 50 uM; No inhibition
T2 sequence (whole entry): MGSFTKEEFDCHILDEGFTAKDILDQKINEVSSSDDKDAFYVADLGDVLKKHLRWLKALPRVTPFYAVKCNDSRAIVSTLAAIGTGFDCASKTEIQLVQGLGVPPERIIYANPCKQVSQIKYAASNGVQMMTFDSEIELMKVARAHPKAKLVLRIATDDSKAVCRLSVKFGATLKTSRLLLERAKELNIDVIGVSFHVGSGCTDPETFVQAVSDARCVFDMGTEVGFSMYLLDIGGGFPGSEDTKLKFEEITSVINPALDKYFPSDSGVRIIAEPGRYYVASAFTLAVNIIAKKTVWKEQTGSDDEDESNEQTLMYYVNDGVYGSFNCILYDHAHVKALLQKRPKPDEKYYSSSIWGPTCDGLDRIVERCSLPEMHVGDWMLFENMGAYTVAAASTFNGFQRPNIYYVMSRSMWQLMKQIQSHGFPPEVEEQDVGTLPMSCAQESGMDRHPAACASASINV

T-24 = assay: Antiproliferative activity against human T24 bladder carcinoma cells; assay type: functional, cell-based
[3] = target: T3, Diamine oxidase [copper-containing] (Rattus norvegicus, UniProt P36633); assay: In vitro inhibition of Diamine oxidase (DAO) from rat small intestine.; assay type: tissue-based
T3 sequence (P36633 whole entry): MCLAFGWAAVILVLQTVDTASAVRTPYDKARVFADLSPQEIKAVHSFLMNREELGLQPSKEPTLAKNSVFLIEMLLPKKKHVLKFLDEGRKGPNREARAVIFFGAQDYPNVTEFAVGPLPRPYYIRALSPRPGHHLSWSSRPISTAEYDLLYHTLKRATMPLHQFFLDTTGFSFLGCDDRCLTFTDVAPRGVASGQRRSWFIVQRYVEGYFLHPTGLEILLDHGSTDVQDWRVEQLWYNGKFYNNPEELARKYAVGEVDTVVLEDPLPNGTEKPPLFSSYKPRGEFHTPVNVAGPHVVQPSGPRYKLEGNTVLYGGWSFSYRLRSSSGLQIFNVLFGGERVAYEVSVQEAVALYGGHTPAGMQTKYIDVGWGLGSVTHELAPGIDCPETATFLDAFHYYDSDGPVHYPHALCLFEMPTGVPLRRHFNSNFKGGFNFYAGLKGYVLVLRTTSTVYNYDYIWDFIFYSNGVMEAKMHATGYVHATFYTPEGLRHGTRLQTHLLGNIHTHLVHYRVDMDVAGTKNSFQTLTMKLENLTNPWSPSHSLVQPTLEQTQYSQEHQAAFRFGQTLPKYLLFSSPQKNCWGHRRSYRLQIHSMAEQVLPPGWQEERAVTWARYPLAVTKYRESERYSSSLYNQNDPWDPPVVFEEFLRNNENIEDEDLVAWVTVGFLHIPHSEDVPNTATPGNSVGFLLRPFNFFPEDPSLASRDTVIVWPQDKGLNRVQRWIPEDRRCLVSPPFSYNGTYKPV

IC50 [1] [µM]	inhibition [2]	IC50 [3] [µM]	Compound	IC50 (T-24) [µM]
0.6	inactive		N=C(N)c1cccc(-c2cccc(C(=N)N)c2)c1	> 160
0.006	inactive	10	N=C(N)c1cccc(-c2ccnc(C(=N)N)n2)c1	68.2
3.1	inactive		N=C(N)c1ccnc(-c2cc(C(=N)N)ccn2)c1	> 143
0.24	inactive	7.5	N=C(NO)N/N=C/c1cccc(C(=N)N)n1	32.9
0.67	inactive	1.66	N=C(NN)N/N=C/c1cccc(C(=N)N)n1	83.6
0.12	inactive	0.76	N=C(N/N=C/c1cccc(C(=N)N)n1)N/N=C/c1cccc(C(=N)N)n1	49.8
0.53	inactive	8.05	N=C(N)N/N=C/c1ccnc(C(=N)N)n1	> 168
0.09	inactive	0.87	N=C(N)N/N=C/c1cccc(C(=N)N)n1	10.1
0.061	inactive	0.83	N=C(N)c1cccc(/C=N/N=C(\N)N/N=C/c2cccc(C(=N)N)c2)c1	> 101
20	inactive	> 100	N=C(N)N/N=C/c1cccc(C(N)=O)c1	> 184
0.066	inactive	2.7	C/C(=N\N=C(N)N)c1cccc(C(=N)N)c1	118
0.33	inactive	3.2	N=C(N)N/N=C/c1ccnc(C(=N)N)c1	> 180
0.084	inactive	19	N=C(NN)c1cccc(/C=N/N=C(N)N)n1	60.5
0.006	inactive	240	N=C(N)c1cccc(-c2cccc(C(=N)N)n2)n1	1.1
> 50	inactive	5	CCCCNC(=N)c1cccc(/C=N/N=C(N)N)c1	> 28.5
0.18	inactive	12.9	N=C(N)c1cc(-c2ccnc(C(=N)N)c2)ccn1	> 151
0.092	inactive	20	N=C(NO)N/N=C/c1cccc(C(=N)N)c1	14.1
0.16	inactive	2.8	CCCCNC(=N)N/N=C/c1cccc(C(=N)N)c1	> 26.8
0.036	inactive	5.6	N=C(N)N/N=C/c1cccc(C(=N)N)c1	9.1
25	inactive	> 100	N=C(N)N/N=C/c1cccc(C(=N)NO)n1	> 119
0.21	inactive	0.87	N=C(NN)N/N=C/c1cccc(C(=N)N)c1	25
0.088	inactive	15	CC/C(=N\N=C(N)N)c1cccc(C(=N)N)c1	> 152
11	inactive	3.4	N=C(N)N/N=C/c1nccc(C(=N)N)n1	> 126

Compound	IC50 [1] [µM]	inhibition [2]	IC50 [3] [µM]	IC50 (T-24) [µM]
CC(/C=N/NC(=N)N)=N\NC(=N)N [MITOGUAZONE]		inactive	1.5	1.1

Reference: ChEMBL document CHEMBL1126674, “S-adenosylmethionine decarboxylase inhibitors: new aryl and heteroaryl analogues of methylglyoxal bis(guanylhydrazone)” (J Med Chem, 1993)
